Source: patent US12377119B2, “Natural killer cells” (IMPERIAL COLLEGE INNOVATIONS LIMITED, priority 2018, dated 2025)
Entries after “also recorded” stand apart in the source; their conditions may differ.

Assays:
[1] = molecular target: T1, REV-ERBβ (Homo sapiens, UniProt Q14995); assay: Dual-luciferase Bmal-luc reporter assay in HEK293T cells transfected with REV-ERBβ; format: cell-based; conditions: 10 μM
T1 construct: expressed in transfected cells; host or cells: HEK293T
T1 sequence (Q14995 1-579): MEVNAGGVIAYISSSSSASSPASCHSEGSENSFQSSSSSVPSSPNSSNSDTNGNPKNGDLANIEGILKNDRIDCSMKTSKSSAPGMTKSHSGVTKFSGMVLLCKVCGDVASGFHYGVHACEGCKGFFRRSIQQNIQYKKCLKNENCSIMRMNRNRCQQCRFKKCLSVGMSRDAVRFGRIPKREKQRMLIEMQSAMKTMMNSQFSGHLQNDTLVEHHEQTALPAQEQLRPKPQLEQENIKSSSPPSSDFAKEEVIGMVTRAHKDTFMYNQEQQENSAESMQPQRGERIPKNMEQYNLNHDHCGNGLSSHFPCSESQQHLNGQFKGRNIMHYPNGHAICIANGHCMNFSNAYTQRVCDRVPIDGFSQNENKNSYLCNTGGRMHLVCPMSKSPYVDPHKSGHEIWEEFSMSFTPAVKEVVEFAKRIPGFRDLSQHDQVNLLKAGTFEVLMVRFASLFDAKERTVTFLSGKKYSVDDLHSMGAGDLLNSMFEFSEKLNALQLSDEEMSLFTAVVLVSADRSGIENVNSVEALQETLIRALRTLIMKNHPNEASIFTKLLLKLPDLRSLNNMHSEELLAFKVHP
Procedure: (§1) HEK293T cells were defrosted and maintained in DMEM supplemented with 10% FCS and 1% P/S at 37° C. and 5% CO2. Cells were plated in a 24-well plate (7·10^4 cells/well in 0.5 mL of DMEM+10% FCS). 24 h after seeding, cells were transfected with 100 ng of Bmal-luc, 10 ng of pRL-CMV Renilla as an internal control and 10 ng of REV-ERBα or the empty vector pcDNA3 as a control. All conditions were equalled to a total of 400 ng of DNA by using BSM. In order to prepare transfection samples, calculated amounts of DNA needed for each condition were prepared in Opti-MEM and Fugene was added in a 5:2 Fugene:DNA ratio. Mixtures were vortexed to assure homogeneity and left to incubate for 15 min at rt. Afterwards, each DNA mix was transferred into the 24-well plate containing the pre-seeded cells, with each condition repeated by triplicate. 5 h after transfection, cells were treated with compounds 2-12, AG1-AG5 or DMSO as vehicle. Solution of the compounds in DMEM were prepared at a double concentration than the final desired one, and 0.5 mL of these solutions were added to each well. 24 h after transfection, cells were lysed and luciferase activity was measured using Dual-Luciferase Reporter Assay System E2920 (Promega). To perform the experiment, cells were lysed by adding 50 μL of passive lysis buffer (PLB) (1:5 dilution) to each well and gently stirring for 30 min. Each cell lysate was transferred to a 96-well plate. 50 μL of Dual-Glo reagent were dispensed into each well, tapped gently to mix and incubated for 10 min. Luminescence of firefly luciferase was measured using a Tecan VICTOR Light Luminescent counter equipment. Then, 50 μL of Stop&Glo reagent were dispensed to quench firefly activity and activate Renilla luciferase, incubated for 10 min and measured. Firefly activity was normalized to Renilla luciferase activity. Results were analysed using Welch's corrected parametric t-test.
The method of Example 2 was repeated but with 10 ng of REV-ERBβ used in place of REV-ERBa. Compounds 4, 66, 69 and 73 were tested (generated as described in Example 1). Agonist compound AG2 and DMSO were also tested as comparators.
The method of Example 5 was repeated using Compounds 18 and 19 (generated as described in Example 1). Agonist compound AG5 and DMSO were also tested as comparators.

[2] = system: E4bp4; conditions: previously shown by the inventors; cited from earlier work
[3] = system: NK cells; conditions: previously shown by the inventors; cited from earlier work
[4] = molecular target: T2, REV-ERBα (Homo sapiens, UniProt P20393); assay: Dual-luciferase Bmal-luc reporter assay in HEK293T cells transfected with REV-ERBα; format: cell-based; conditions: 10 μM
T2 construct: expressed in transfected cells; host or cells: HEK293T
T2 sequence (P20393 1-614): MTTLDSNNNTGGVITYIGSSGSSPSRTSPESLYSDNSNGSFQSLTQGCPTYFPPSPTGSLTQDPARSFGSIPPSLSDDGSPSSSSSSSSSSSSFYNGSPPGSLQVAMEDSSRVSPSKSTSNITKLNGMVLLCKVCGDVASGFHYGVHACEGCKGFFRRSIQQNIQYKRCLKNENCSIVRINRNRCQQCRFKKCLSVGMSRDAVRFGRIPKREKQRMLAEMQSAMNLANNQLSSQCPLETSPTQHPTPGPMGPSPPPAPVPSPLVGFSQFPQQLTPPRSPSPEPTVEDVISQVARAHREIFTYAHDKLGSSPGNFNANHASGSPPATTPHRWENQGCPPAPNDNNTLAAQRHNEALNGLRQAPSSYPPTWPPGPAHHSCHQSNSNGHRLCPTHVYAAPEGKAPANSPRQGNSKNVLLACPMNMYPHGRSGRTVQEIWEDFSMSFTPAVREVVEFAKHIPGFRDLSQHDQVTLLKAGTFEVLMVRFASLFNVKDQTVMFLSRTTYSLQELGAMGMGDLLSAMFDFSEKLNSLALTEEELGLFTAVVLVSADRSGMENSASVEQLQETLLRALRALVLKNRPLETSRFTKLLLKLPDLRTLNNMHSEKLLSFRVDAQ
Procedure: as §1
(§2) The method of Example 2 was repeated using Compounds 70 to 72 (generated as described in Example 1). Compounds 4, 7 and 11 (tested in Example 2) were used as a positive control for REV-ERB inhibitory activity, agonist compound AG2 (also tested in Example 2) and DMSO were also tested as comparators.
The method of Example 2 was repeated using Compounds 64 to 66, 69 and 70 to 73 (generated as described in Example 1). Once again, Compounds 4, 7 and 11 (tested in Example 2) were used as a positive control for REV-ERB inhibitory activity, agonist compound AG2 (also tested in Example 2) and DMSO were also tested as comparators.
as §2, with “16” for “70”, “19, 27, 28 and 44” for “72”, “1). Once again,” for “1).”

[5] = FIG. 8, two independent experiments in triplicate
[6] = FIG. 3, three independent experiments in triplicate, comparison with SR8278
[7] = FIG. 4, two independent experiments in triplicate, comparison with SR8278
[8] = FIG. 6, three independent experiments in triplicate

Effect on REV-ERBβ activity (Bmal-luc luciferase expression) [1, 5] | Effect on REV-ERBα activity (Bmal-luc luciferase expression) [4, 7] | Effect on REV-ERBβ activity (Bmal-luc luciferase expression) [1, 8] | SMILES | Effect on REV-ERBα activity (Bmal-luc luciferase expression) [4, 6] | other results
antagonistic activity |  |  | CCOC(=O)C1Cc2ccccc2CN1C(=O)c1ccnn1C (racemic) [Compound 18] |  | 
 |  |  | CCOC(=O)C1Cc2ccccc2CN1C(=O)c1ccc(SC)s1 (stereo not shown) [SR8278] |  | E4bp4 expression [2]: increases E4bp4 expression; NK cell production [3]: increases NK cell production
 | significant antagonistic activity | significant antagonistic activity | CCOC(=O)C1Cc2ccccc2CN1C(=O)OCC (racemic) [Compound 4, Diethyl 3,4-dihydroisoquinoline-2,3(1H)-dicarboxylate] | significant increase in luciferase expression compared with SR8278; also recorded: significant antagonistic activity | Effect on REV-ERBα activity (Bmal-luc luciferase expression) ([4]; FIG. 7, three independent experiments in triplicate): significant antagonistic activity
antagonistic activity |  |  | CCOC(=O)C1Cc2ccccc2CN1C(=O)c1ccn(C)n1 (racemic) [Compound 19] |  | 
agonist | agonist | agonist | CCOC(=O)C1Cc2ccccc2CN1S(=O)(=O)c1cccc2ccccc12 (stereo not shown) [AG2] | agonists | Effect on REV-ERBα activity (Bmal-luc luciferase expression) ([4]; FIG. 5, three independent experiments in triplicate): agonist
